# Reference: patent US9738634B2, “Heterocyclic amide compound and herbicide” (SYNGENTA PARTICIPATIONS AG, priority 2013, dated 2017)
# Columns and labels:
# Assay type in all cases: in vivo
# [1] = system: oval-leafed pondweed; test: Test Example 2: weedkilling efficacy, growth period weed treatment in the submerged state; C: oval-leafed pondweed
# Summary of the method: (§1)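 Barnyard grass, bulrush and oval-leafed pondweed sown in alluvial soil under 4 cm flooding, greenhouse 25 to 30° C. At 1-2 leaf stage, water-diluted emulsion applied to the water surface at stated g/ha dosages; effects scored 3 weeks later.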
# [2] = system: oval-leafed pondweed; test: Test Example 1: weedkilling efficacy, preemergent weed treatment in the submerged state; C: oval-leafed pondweed
# Summary of the method: (§2)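 Visual scores against set criteria were taken 3 weeks after treatment. Compounds, as diluted emulsions at specified g/ha, went onto the water surface of 4 cm-flooded alluvial soil pots on the day weeds were sown and 2.5-leaf rice was transplanted; greenhouse held 25–30 °C.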
# [3] = system: transplanted rice; test: Test Example 1: preemergent weed treatment in the submerged state, effect on crop; a: transplanted rice
# Summary of the method: as §2
# [4] = system: barnyard grass; test: Test Example 1: weedkilling efficacy, preemergent weed treatment in the submerged state; A: barnyard grass
# Summary of the method: as §2
# [5] = system: bulrush; test: Test Example 1: weedkilling efficacy, preemergent weed treatment in the submerged state; B: bulrush
# Summary of the method: as §2
# [6] = system: bulrush; test: Test Example 2: weedkilling efficacy, growth period weed treatment in the submerged state; B: bulrush
# Summary of the method: as §1
# [7] = system: barnyard grass; test: Test Example 2: weedkilling efficacy, growth period weed treatment in the submerged state; A: barnyard grass
# Summary of the method: as §1
Compound,C (oval-leafed pondweed) weedkilling efficacy grade ([1]; treatment dosage 252 g/ha),"C: oval-leafed pondweed, weed kill grade ([2]; treatment dosage 252 g/ha)","a: transplanted rice, effect on crop grade ([3]; treatment dosage 252 g/ha)","A: barnyard grass, weed kill grade ([4]; treatment dosage 252 g/ha)","B: bulrush, weed kill grade ([5]; treatment dosage 252 g/ha)",B (bulrush) weedkilling efficacy grade ([6]; treatment dosage 252 g/ha),A (barnyard grass) weedkilling efficacy grade ([7]; treatment dosage 252 g/ha),C (oval-leafed pondweed) weedkilling efficacy grade ([1]; treatment dosage 320 g/ha),"C: oval-leafed pondweed, weed kill grade ([2]; treatment dosage 320 g/ha)","a: transplanted rice, effect on crop grade ([3]; treatment dosage 320 g/ha)","A: barnyard grass, weed kill grade ([4]; treatment dosage 320 g/ha)","B: bulrush, weed kill grade ([5]; treatment dosage 320 g/ha)",B (bulrush) weedkilling efficacy grade ([6]; treatment dosage 320 g/ha),A (barnyard grass) weedkilling efficacy grade ([7]; treatment dosage 320 g/ha)
CC(C)(C(=O)Nc1cc(Br)cnc1Cl)N1COCN(c2ccccc2)C1=O [A-3-07],"1 (weed kill ratio 5% or more, less than 20%)","4 (weed kill ratio 70% or more, less than 90%)",0 (weed kill ratio 5% or less (practically no effect)),"5 (weed kill ratio 90% or more, (practically complete withering))","5 (weed kill ratio 90% or more, (practically complete withering))","5 (weed kill ratio 90% or more, (practically complete withering))","4 (weed kill ratio 70% or more, less than 90%)",–,–,–,–,–,–,–
CC(C)(C(=O)Nc1cc(Cl)cnc1Br)N1COCN(c2ccccc2)C1=O [A-3-08],"2 (weed kill ratio 20% or more, less than 40%)","4 (weed kill ratio 70% or more, less than 90%)",0 (weed kill ratio 5% or less (practically no effect)),"5 (weed kill ratio 90% or more, (practically complete withering))","5 (weed kill ratio 90% or more, (practically complete withering))","3 (weed kill ratio 40% or more, less than 70%)","2 (weed kill ratio 20% or more, less than 40%)",–,–,–,–,–,–,–
CC(C)(C(=O)Nc1cncc(C(F)(F)F)c1)N1COCN(c2ccccc2)C1=O [A-3-10],"4 (weed kill ratio 70% or more, less than 90%)","5 (weed kill ratio 90% or more, (practically complete withering))","1 (weed kill ratio 5% or more, less than 20%)","5 (weed kill ratio 90% or more, (practically complete withering))","5 (weed kill ratio 90% or more, (practically complete withering))","5 (weed kill ratio 90% or more, (practically complete withering))","3 (weed kill ratio 40% or more, less than 70%)",–,–,–,–,–,–,–
CC(C)(C(=O)Nc1ccnc(Cl)c1)N1COCN(c2ccccc2)C1=O [A-4-02],"4 (weed kill ratio 70% or more, less than 90%)","5 (weed kill ratio 90% or more, (practically complete withering))","1 (weed kill ratio 5% or more, less than 20%)","5 (weed kill ratio 90% or more, (practically complete withering))","5 (weed kill ratio 90% or more, (practically complete withering))","5 (weed kill ratio 90% or more, (practically complete withering))","2 (weed kill ratio 20% or more, less than 40%)",–,–,–,–,–,–,–
CC(C)(C(=O)Nc1ccnc(Br)c1)N1COCN(c2ccccc2)C1=O [A-4-03],"4 (weed kill ratio 70% or more, less than 90%)","5 (weed kill ratio 90% or more, (practically complete withering))","1 (weed kill ratio 5% or more, less than 20%)","5 (weed kill ratio 90% or more, (practically complete withering))","5 (weed kill ratio 90% or more, (practically complete withering))","5 (weed kill ratio 90% or more, (practically complete withering))","2 (weed kill ratio 20% or more, less than 40%)",–,–,–,–,–,–,–
CC(C)(C(=O)Nc1cc(F)nc(F)c1)N1COCN(c2ccccc2)C1=O [A-4-04],–,–,–,–,–,–,–,"4 (weed kill ratio 70% or more, less than 90%)","5 (weed kill ratio 90% or more, (practically complete withering))",0 (weed kill ratio 5% or less (practically no effect)),"5 (weed kill ratio 90% or more, (practically complete withering))","5 (weed kill ratio 90% or more, (practically complete withering))","5 (weed kill ratio 90% or more, (practically complete withering))","3 (weed kill ratio 40% or more, less than 70%)"
CC(C)(C(=O)Nc1ccnc(C(F)(F)F)c1)N1COCN(c2ccccc2)C1=O [A-4-06],"4 (weed kill ratio 70% or more, less than 90%)","5 (weed kill ratio 90% or more, (practically complete withering))",0 (weed kill ratio 5% or less (practically no effect)),"5 (weed kill ratio 90% or more, (practically complete withering))","5 (weed kill ratio 90% or more, (practically complete withering))","5 (weed kill ratio 90% or more, (practically complete withering))","4 (weed kill ratio 70% or more, less than 90%)",–,–,–,–,–,–,–
CC(C)(C(=O)Nc1cc(-c2ccsc2)ccn1)N1COCN(c2ccccc2)C1=O [A-5-01],–,–,–,–,–,–,–,"4 (weed kill ratio 70% or more, less than 90%)","5 (weed kill ratio 90% or more, (practically complete withering))",0 (weed kill ratio 5% or less (practically no effect)),"4 (weed kill ratio 70% or more, less than 90%)","5 (weed kill ratio 90% or more, (practically complete withering))","4 (weed kill ratio 70% or more, less than 90%)","4 (weed kill ratio 70% or more, less than 90%)"
CC(C)(C(=O)Nc1cc(Cl)cc(Cl)n1)N1COCN(c2c(F)cccc2F)C1=O [A-6-01],"5 (weed kill ratio 90% or more, (practically complete withering))","5 (weed kill ratio 90% or more, (practically complete withering))","3 (weed kill ratio 40% or more, less than 70%)","5 (weed kill ratio 90% or more, (practically complete withering))","5 (weed kill ratio 90% or more, (practically complete withering))","5 (weed kill ratio 90% or more, (practically complete withering))","5 (weed kill ratio 90% or more, (practically complete withering))",–,–,–,–,–,–,–
CC(C)(C(=O)Nc1cc(Cl)cc(Br)n1)N1COCN(c2c(F)cccc2F)C1=O [A-6-02],"5 (weed kill ratio 90% or more, (practically complete withering))","5 (weed kill ratio 90% or more, (practically complete withering))",0 (weed kill ratio 5% or less (practically no effect)),"5 (weed kill ratio 90% or more, (practically complete withering))","5 (weed kill ratio 90% or more, (practically complete withering))","5 (weed kill ratio 90% or more, (practically complete withering))","5 (weed kill ratio 90% or more, (practically complete withering))",–,–,–,–,–,–,–
CC(C)(C(=O)Nc1cc(C(F)(F)F)ccn1)N1COCN(c2ccc(Cl)c(Cl)c2)C1=O [A-6-03],–,–,–,–,–,–,–,0 (weed kill ratio 5% or less (practically no effect)),0 (weed kill ratio 5% or less (practically no effect)),0 (weed kill ratio 5% or less (practically no effect)),"3 (weed kill ratio 40% or more, less than 70%)","5 (weed kill ratio 90% or more, (practically complete withering))","2 (weed kill ratio 20% or more, less than 40%)",0 (weed kill ratio 5% or less (practically no effect))
Cc1ccc(N2COCN(C(C)(C)C(=O)Nc3cc(C(F)(F)F)ccn3)C2=O)cc1Cl [A-6-04],–,–,–,–,–,–,–,0 (weed kill ratio 5% or less (practically no effect)),"2 (weed kill ratio 20% or more, less than 40%)",0 (weed kill ratio 5% or less (practically no effect)),"4 (weed kill ratio 70% or more, less than 90%)","4 (weed kill ratio 70% or more, less than 90%)","2 (weed kill ratio 20% or more, less than 40%)","1 (weed kill ratio 5% or more, less than 20%)"
CC(C)(C(=O)Nc1cc(Cl)cc(Cl)n1)N1COCN(c2ccccc2Cl)C1=O [A-6-06],"5 (weed kill ratio 90% or more, (practically complete withering))","5 (weed kill ratio 90% or more, (practically complete withering))","2 (weed kill ratio 20% or more, less than 40%)","5 (weed kill ratio 90% or more, (practically complete withering))","5 (weed kill ratio 90% or more, (practically complete withering))","5 (weed kill ratio 90% or more, (practically complete withering))","5 (weed kill ratio 90% or more, (practically complete withering))",–,–,–,–,–,–,–
